How the values were obtained:
Format in all cases: biochemical
Human PKK [1] = biological target: T1, Human PKK (Homo sapiens (Human), UniProt P03952); assay: Inhibition of PKK (Ki), kinetic assay; conditions: 24° C., IC50 corrected for KM
Human PKK [2] = biological target: T1, Human PKK; assay: Inhibition of PKK, endpoint assay (human PKK); conditions: substrate H-Pro-Phe-Arg-AMC, 1 h room temperature
Experimental: Subsequently, PPACK II (Calbiochem) was added as a stop solution to achieve a final concentration of 1 μM and fluorescence was measured using an Envision Reader (PerkinElmer) with the wavelength excitation setting of 355 nm and the wavelength emission setting of 460 nm.

[3] = biological target: PKK in kaolin activated human platelet poor plasma (Homo sapiens (Human), UniProt P03952); assay: Inhibition of PKK in kaolin activated human PPP; conditions: global fit over 25, 75, 250, 750 μg/mL kaolin
Chain of PKK in kaolin activated human platelet poor plasma (P03952 391-638): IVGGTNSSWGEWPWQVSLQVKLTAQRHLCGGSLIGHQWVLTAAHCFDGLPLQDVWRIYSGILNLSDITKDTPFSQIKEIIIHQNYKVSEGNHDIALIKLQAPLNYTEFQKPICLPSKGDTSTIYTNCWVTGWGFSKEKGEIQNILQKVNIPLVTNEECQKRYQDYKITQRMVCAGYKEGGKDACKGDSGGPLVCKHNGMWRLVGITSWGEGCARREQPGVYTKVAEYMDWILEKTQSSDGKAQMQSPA
Chain of PKK in kaolin activated human platelet poor plasma (P03952 20-390 partner): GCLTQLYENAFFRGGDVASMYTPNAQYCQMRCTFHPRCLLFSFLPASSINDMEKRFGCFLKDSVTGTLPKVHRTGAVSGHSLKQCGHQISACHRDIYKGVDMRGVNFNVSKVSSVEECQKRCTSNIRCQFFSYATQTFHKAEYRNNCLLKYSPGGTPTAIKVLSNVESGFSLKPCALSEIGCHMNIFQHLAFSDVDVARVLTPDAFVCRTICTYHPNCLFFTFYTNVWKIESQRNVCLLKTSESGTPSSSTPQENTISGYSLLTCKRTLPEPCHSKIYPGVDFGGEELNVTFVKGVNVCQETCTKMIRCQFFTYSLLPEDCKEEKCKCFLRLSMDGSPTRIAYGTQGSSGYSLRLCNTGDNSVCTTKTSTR
Experimental: Platelet poor plasma (PPP) obtained from human wholeblood, anticoagulated with Na-Citrat, was incubated with various concentrations of the test compound together with either 25, 75, 250, or 750 μg/mL kaolin in assay buffer for 20 min at 37° C. such that for each kaolin dose used a concentration response was obtained for the test compound.

human TK1 = human TK1 (Homo sapiens (Human), UniProt P06870); assay: Inhibition of TK1 (Ki); conditions: column head prints IC50, text above the table says Ki values
Chain of human TK1 (P06870 25-262): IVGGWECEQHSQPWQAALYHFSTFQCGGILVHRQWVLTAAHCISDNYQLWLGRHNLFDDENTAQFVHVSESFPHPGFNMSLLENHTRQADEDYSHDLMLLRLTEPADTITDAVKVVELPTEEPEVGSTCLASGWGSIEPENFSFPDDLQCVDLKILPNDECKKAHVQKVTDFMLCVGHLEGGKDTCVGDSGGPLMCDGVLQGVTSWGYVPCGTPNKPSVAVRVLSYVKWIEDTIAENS
Procedure, shortened: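 Trypsin-activated human TK1 (31.25 nM or 1 U/mL) incubated at 24 °C with 0.1 mM H-Pro-Phe-Arg-AMC and compound in pH 7.8 Tris/NaCl buffer with 0.1% BSA, 1% DMSO; fluorescence read kinetically over 16 min. IC50 from Vmax (2-12 min) four-parameter fit, converted to Ki using substrate KM.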

T1 sequence (P03952 391-638): as the sequence (P03952 391-638) above
T1 sequence (P03952 20-390 partner): as the sequence (P03952 20-390 partner) above

Compound	Ki (Human PKK [1]) [nM]	IC50 (Human PKK [2]) [nM]	IC90 [3] [nM]	IC50 (human TK1) [nM]
Cc1nc(N2CCC(C)(C#N)C2)ccc1Cn1cc(C(=O)N[C@@H]2CCc3c2n[nH]c3C)cn1 (stereo partly drawn) [Example 71, 1-{[6-(3-Cyano-3-methylpyrrolidin-1-yl)-2-methylpyridin-3-yl]methyl}-N-[(6R)-3-methyl-2H,4H,5H,6H-cyclopenta[c]pyrazol-6-yl]-1H-pyrazole-4-carboxamide]	1	2	708	> 10000
Cc1nc(N2CC(C)(F)C2)ccc1Cn1cc(C(=O)N[C@@H]2CCc3c2n[nH]c3C)cn1 [Example 77, 1-{[6-(3-Fluoro-3-methylazetidin-1-yl)-2-methylpyridin-3-yl]methyl}-N-[(6R)-3-methyl-2H,4H,5H,6H-cyclopenta[c]pyrazol-6-yl]-1H-pyrazole-4-carboxamide]	4	5	1110	> 10000
Cc1nc(N2CC3CC3C2)ncc1Cn1cc(C(=O)N[C@@H]2CCc3c(C)n[nH]c32)nn1 (stereo partly drawn) [Example 87, 1-[(2-{3-Azabicyclo[3.1.0]hexan-3-yl}-4-methylpyrimidin-5-yl)methyl]-N-[(6R)-3-methyl-1H,4H,5H,6H-cyclopenta[c]pyrazol-6-yl]-1H-1,2,3-triazole-4-carboxamide]	1	2	1170	> 10000
Cc1nc(N2CC3CC3C2)ccc1Cn1cc(C(=O)N[C@@H]2CCc3c2n[nH]c3C)nc1C1CC1 (stereo partly drawn) [Example 96, 1-[(6-{3-Azabicyclo[3.1.0]hexan-3-yl}-2-methyl-pyridin-3-yl)methyl]-2-cyclopropyl-N-[(6R)-3-methyl-2H,4H,5H,6H-cyclopenta[c]pyrazol-6-yl]-1H-imidazole-4-carboxamide]	1	2	781	> 10000
Cc1nc(N2CC3CC3C2)ccc1Cn1cc(C(=O)N[C@@H]2CCc3c2n[nH]c3C)nc1C (stereo partly drawn) [Example 97, 1-[(6-(3-Azabicyclo[3.1.0]hexan-3-yl}-2-methyl-pyridin-3-yl)methyl]-2-methyl-N-[(6R)-3-methyl-2H,4H,5H,6H-cyclopenta[c]pyrazol-6-yl]-1H-imidazole-4-carboxamide]	1	2	302	> 10000
Cc1nc(N2CC3CC3C2)ccc1Cn1cc(C(=O)N[C@@H]2CCc3c2n[nH]c3C)nc1C(F)(F)F (stereo partly drawn) [Example 98, 1-[(6-{3-Azabicyclo[3.1.0]hexan-3-yl}-2-methyl-pyridin-3-yl)methyl]-N-[(6R)-3-methyl-2H,4H,5H,6H-cyclopenta[c]pyrazol-6-yl]-2-(trifluoromethyl)-1H-imidazole-4-carboxamide]	6	5	3140	> 10000
Cc1nc(N2C[C@@H]3[C@H](C)[C@@H]3C2)ccc1Cn1cnc(C(=O)N[C@@H]2CCc3c2n[nH]c3C)c1 [Example 100, N-[(6R)-3-Methyl-2H,4H,5H,6H-cyclopenta[c]-pyrazol-6-yl]-1-({2-methyl-6-[(1R,5S,6R)-6-methyl-3-azabicyclo[3.1.0]hexan-3-yl]pyridin-3-yl}methyl)-1H-imidazole-4-carboxamide]	0.8	0.4	303	> 10000
Cc1nc(N2C[C@@H]3[C@H](C)[C@@H]3C2)ncc1Cn1cnc(C(=O)N[C@@H]2CCc3c2n[nH]c3C)c1 [Example 101, 1-({4-Methyl-2-[(1R,5S,6R)-6-methyl-3-azabicyclo[3.1.0]hexan-3-yl]pyrimidin-5-yl}methyl)-N-[(6R)-3-methyl-2H,4H,5H,6H-cyclopenta[c]-pyrazol-6-yl]-1H-imidazole-4-carboxamide]	2	2	727	> 10000
Cc1nc(N2CC3CC3C2)ccc1Cn1cc(C(=O)N[C@@H]2CCc3c2n[nH]c3C)nc1Cl (stereo partly drawn) [Example 102, 1-[(6-{3-Azabicyclo[3.1.0]hexan-3-yl}-2-methyl-pyridin-3-yl)methyl]-2-chloro-N-[(6R)-3-methyl-2H,4H,5H,6H-cyclopenta[c]pyrazol-6-yl]-1H-imidazole-4-carboxamide]	4	1	5480	> 10000
Cc1[nH]nc2c1CC[C@H]2NC(=O)c1cn(Cc2ccc(N3CC4CC4C3)nc2)cn1 (stereo partly drawn) [Example 103, 1-[(6-{3-Azabicyclo[3.1.0]hexan-3-yl}pyridin-3-yl)-methyl]-N-[(6R)-3-methyl-2H,4H,5H,6H-cyclo-penta[c]pyrazol-6-yl]-1H-imidazole-4-carboxamide]	3	2	416	> 10000
Cc1[nH]nc2c1CC[C@H]2NC(=O)c1cn(Cc2ccc(N3CC4(CC4)C3)nc2)cn1 [Example 104, 1-[(6-{5-Azaspiro[2.3]hexan-5-yl}pyridin-3-yl)-methyl]-N-[(6R)-3-methyl-2H,4H,5H,6H-cyclo-penta[c]pyrazol-6-yl]-1H-imidazole-4-carboxamide]	3	3	444	> 10000
Cc1nc(N2CC3CC3C2)ccc1Cn1cc(C(=O)N[C@@H]2CCc3c2n[nH]c3C)c2cc(C(=O)O)ccc21 (stereo partly drawn) [Example 108, 1-[(6-{3-Azabicyclo[3.1.0]hexan-3-yl}-2-methylpyridin-3-yl)methyl]-3-{[(6R)-3-methyl-2H,4H,5H,6H-cyclopenta[c]pyrazol-6-yl]carbamoyl}-1H-indole-5-carboxylic acid]	6	1	776	> 10000

Reference: patent US10695334B2, “Heteroaromatic carboxamide derivatives as plasma kallikrein inhibitors” (Boehringer Ingelheim International GmbH, priority 2018, dated 2020)
